Measured values as given in US9023354B2, “Combination therapy with MDM2 and EFGR inhibitors” (priority 2010, dated 2015).
Where two headings read alike, the source gives them in different places.

Tests used:
[1] = system: A431 cells; test: A431 cell proliferation assay (MTT), alone and in combination with Tarceva; assay type: cell-based; details: for A431 Cell Proliferation CI Value: combination with Tarceva, CI <0.8 indicates synergy
Method: This example describes an assay that measures the ability of compounds to inhibit the proliferation of cultured cells. This assay can also be used to assess whether combining two or more compounds produces additive, synergistic, or antagonistic effects on cell growth.
On day 1, the cells were seeded at 10^3 cells per well in 100 μl of complete media under standard conditions.
On day 2, the cells were washed and 100 μl serum free media was added. The cells were then incubated for at least 2 hours before the addition of compound(s). 20 μl of compound(s) was added to the respective wells and incubated at 37° C., 5% CO2 for 72 hrs.
On day 5, 50 μl of the MTT dye solution was added to each well. The plates were incubated at 37° C., 5% CO2 for 1 hr. The media was then aspirated and the cells were resuspended in […] of DMSO. The plates were allowed to incubate for 5 min at room temperature with gentle shaking.
The absorbance in each well was determined at 560 nm using a Polarstar plate reader.
The A431 cell line over-expresses the EGF receptor, and was utilized to assess the ability of AD4 compounds to inhibit EGF-mediated cell proliferation.

[2] = target: p53/MDM2 binding (Homo sapiens (Human), UniProt Q00987); test: AlphaScreen measurement of p53/MDM2 interaction (truncated GST-MDM2 aa 1-150)
Sequence of p53/MDM2 binding (Q00987 1-150): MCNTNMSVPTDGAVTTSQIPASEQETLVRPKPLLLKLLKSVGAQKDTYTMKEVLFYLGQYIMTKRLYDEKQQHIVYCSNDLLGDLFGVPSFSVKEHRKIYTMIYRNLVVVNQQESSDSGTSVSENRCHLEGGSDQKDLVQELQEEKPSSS
Method: The following example describes an assay that measured the ability of compounds to inhibit the binding of p53 to MDM2 using the AlphaScreen assay technology (PerkinElmer). […] Recombinant, truncated, human, N-terminal GST-MDM2 (aa 1-150) was obtained from GeneScript. Wild-type, full length human N-terminal 6-his p53 was purchased from SignalChem.
Resulting in a final reaction volume of 24 μl PBS, 0.1% Tween-20, and 10% glycerol, 30 ng of MDM2 was added, followed by the addition of 10 of compound diluted in 100% DMSO that provided a final DMSO concentration of 4%. 30 ng of p53 was then added, mixed, and incubated at room temperature for 1 hour. Glutathione donor beads and Nickel acceptor beads (0.5 μg each; PerkinElmer) were added under subdued lighting conditions to a final reaction volume of 30 μl/well in a 96 well, ½ volume Proxima plate. The reaction was incubated at room temperature with shaking for 18 hrs in the dark. Analysis was then performed on a PerkinElmer EnSpire plate reader to determine the ability of compounds to inhibit the binding of p53 to MDM2.

[3] = system: A549 cells; test: DNA fragmentation (Cell Death Detection ELISA), measurement of apoptosis
Method: The plates were allowed to incubate overnight @ 37° C., 5% CO2. On day 2, the media was removed from the plates and 160 μl media containing 5% FBS was added. 40 μl of media-containing test compound in 100% DMSO (prepared at 5× the dosing concentration) was added to the existing media resulting in a final DMSO concentration of 0.5%. Cells were incubated in the presence of a compound for 24 hrs @ 37° C., 5% CO2.
After 24 hrs, the abovementioned plates were centrifuged at 200×g for 10 min. The media was removed by gently inverting the plate and disposing of the media onto a paper towel. The plates were tapped gently to remove excess media. 200 μl lysis buffer was added to each well, and mixed by shaking at 300 rpm. The plates were incubated at room temperature for 30 min. The plates were centrifuged at 200×g for 10 min and 20 μl of lysis supernatant was removed for use in ELISA analysis to detect cell death.
20 μl of the cell lysis supernatant was placed into streptavidin-coated plates with 20 μl positive control and 20 μl incubation buffer negative control. Add 80 μl Immunoreagent (for DNA fragment detection) to each well. The wells were covered with foil adhesive and shaken at 300 rpm for 2 h at room temperature. The supernatant solution was removed and the wells were washed 3 times with 300 μl incubation buffer. 100 μl of ABTS detection substrate was added to each well. The wells were incubated on a plate shaker at 250 rpm for approximately 10-20 min. 100 μl ABTS of stop buffer was then added. […] The absorbance measures the colored product spectrophotometrically, correlating with apoptosis.
The percent increase in DNA fragmentation produced by compounds at a concentration of 1 and 10 μM were compared to background, and to the response produced by 500 nM staurosporin.

[4] = system: p53 and phospho-p53 (S15) in A549 NSCLC cells; test: p53 In-Cell Western; assay type: cell-based, human; details: about 1-3 μM
[5] = system: apoptosis-related proteins in A549 cells; test: Proteome profile of apoptosis-related proteins; assay type: cell-based, human; details: 5 μM
Text: This example describes an assay that measured the relative expression levels of 35 apoptosis-related proteins in a single sample of whole cell extract. Methods are according to Examples 1-2 unless otherwise specified.
The protocol and reagents were purchased from R&D systems (Human apoptosis array kit; cat. #ARY009). The kit consisted of an antibody array spotted on nitrocellulose membranes with each specific antibody printed in duplicate. The detection antibodies were biotinylated so they could be used with a streptavidin-HRP conjugate designed for chemiluminescent imaging. The protocol was modified to utilize the LiCor infrared imaging technology by substituting an infrared 680 nm-tagged streptavidin.
The following day, two μl of compound dilutions in 100% DMSO were added to the appropriate wells resulting in a final concentration of 5 μM. The plates were then incubated for 6 hours at 37° C., 5% CO2, and 85% relative humidity. Following incubation, the cells were washed with 2 ml of PBS, then lysed with 500 μl/well of Lysis buffer, supplemented with a 1/200 dilution of mammalian protease inhibitor cocktail (Sigma Aldrich). The plates were shaken for 30 min at room temperature, spun @ 14,000×g for 5 minutes. 250 μl of the supernatant was removed and added to 1.25 ml of Assay buffer 1. The supernatant and Assay buffer 1 were incubated with membranes overnight at room temperature with shaking.
The following day, the membranes were washed 3 times for 10 min each, with 1× wash buffer in individual 50 ml Falcon tubes at room temperature with rotation. The membranes were incubated with a 1/100 dilution of biotinylated detection antibodies for 3 hours at room temperature with shaking.
The membranes were washed, then incubated with a 1/1000 dilution of IR 680 nm-labeled streptavidin (LiCor) for 60 minutes with shaking in the dark. The membranes were again washed. Excess buffer was blotted from membranes, placed between two pieces of transparent plastic and imaged on the LiCor infrared imager. The LiCor Odyssey software is used to quantitate the pixel intensity of each spot in the array.
First, several compounds were evaluated in a proteome profiling array system containing antibodies to 35 apoptosis-related proteins. In this assay (see Example 3), the relative expression levels of these proteins in cell extracts are measured from treated and non-treated A549 cells.

[6] = system: A431 cells; test: Caspase 3/7 activity, measurement of apoptosis; assay type: cell-based; details: 10 μM compared to 10 μM Tarceva
[7] = system: p53-induced reporter gene activity; test: p53 reporter gene assay in HEK293 cells; assay type: cell-based; details: 10 μM
Method: This example describes an assay that measures the ability of compounds to stimulate p53-induced reporter gene activity. In order for p53 activity to be observed, the interaction of p53 with MDM2 must be inhibited. Methods are according to Examples 1-5 unless otherwise specified.
HEK293 cells were transiently transfected with the inducible p53-responsive firefly luciferase reporter and constitutively-expressing Renilla construct. After 16 hrs of transfection at 37° C., 5% CO2, the transfection media was removed and 200 μl/well of assay media was added. The cells were then incubated for 8 hrs at 37° C., 5% CO2.
[…] of compound(s) was added to the cells and incubated for 16 hrs at 37° C. and 5% CO2. The cells were carefully washed with 200 μl of PBS. 20 μl_of lysis buffer was then added to each well and incubated at room temperature for 15 minutes with shaking.
The lysis buffer supernatant was transferred to a white/opaque CoStar 96-well plate and 100 μl of firefly luceriferase assay substrate was added. The luminescence in each well was determined using a Polarstar plate reader.
100 μl of Stop and Glow reagent was added to each well, mixed, and the luminescence generated by the Renilla luciferase was determined using a Polarstar plate reader. The Renilla signal was used to normalize the transfection efficiency and cell viability.

[8] = Stability toward liver microsome incubation; assay type: in vitro ADME
[9] = Table 7C, read-out: p53/MDM2 IC50 Value
[10] = Table 9, read-out: Inhibition of p53/MDM2 Binding IC50 Value
[11] = A431 cells, further studies, Example 9, Table 7A, read-out: A431 Cell Proliferation (IC50 Value)
[12] = A431 cells, preliminary assessment, Example 8, Table 6A, read-out: A431 Cell Proliferation (IC50)
[13] = Homo sapiens, A549, read-out: % Inc. over Background, DNA fragmentation

Structure (SMILES)	IC50 [2, 9] [µM]	IC50 [2, 10] [µM]	IC50 [1, 11] [µM]	IC50 [1, 12] [µM]	A431 Cell Proliferation CI Value ([1]; Example 9, Table 7B)	A431 Cell Proliferation CI Value ([1]; Example 8, Table 6B)	also measured
Oc1c(C(Nc2cccnc2)c2ccc(C(F)(F)F)cc2)ccc2cccnc12 (stereo not shown) [AD4-10942]	18	18	3.2	3.2	0.57	0.60	Caspase 3/7 activity % Increase Relative to Tarceva [6]: 72%
CCOc1ccc(C(Nc2ccccn2)c2cc(Cl)c3cccnc3c2O)cc1 (stereo not shown) [AD4-10953]							stimulation of p53 reporter gene activity [7]: 9.7 fold
Oc1c(C(Nc2ccc(Cl)cn2)c2ccc(C(F)(F)F)cc2)ccc2cccnc12 (stereo not shown) [AD4-13053]					0.78		stability (toward liver microsome incubation) [8]: increased stability over AD4-10628
Oc1c(C(Nc2ccccn2)c2ccccc2Cl)ccc2cccnc12 (stereo not shown) [AD4-10482]	18	18	3.6	3.6	0.89	0.54	Caspase 3/7 activity % Increase Relative to Tarceva [6]: 21%
Oc1c(C(Nc2cc(Cl)c(Cl)cn2)c2ccc(Cl)cc2Cl)ccc2cccnc12 (stereo not shown) [AD4-13178]							activation at 10 µM ([3]; Homo sapiens, A549, read-out: % Inc. Relative to Staurosporin (500 nM), DNA fragmentation): 68%; activation at 1 µM [3, 13]: 395%; activation at 10 µM [3, 13]: 581%; phosphorylated forms of p53 [5]: increased all three phosphorylated forms of p53

Second part, led by results:

IC50 [2, 9] [µM]	IC50 [2, 10] [µM]	IC50 [1, 11] [µM]	IC50 [1, 12] [µM]	Structure (SMILES)	A431 Cell Proliferation CI Value ([1]; Example 9, Table 7B)	A431 Cell Proliferation CI Value ([1]; Example 8, Table 6B)	also measured
9.2	9.2			Cc1ccnc(NC(c2ccccc2Cl)c2ccc3cccnc3c2O)c1 (stereo not shown) [AD4-12907]	0.71		IC50 ([1]; Homo sapiens, A-431, A431 cells, further studies, Example 9, Table 7A, read-out: A431 Cell Proliferation (IC50 Value)): 2.6 µM
		2.2		Cc1cc(Cl)cnc1NC(c1ccc2cccnc2c1O)c1c(F)c(F)c(OCC(F)(F)F)c(F)c1F (stereo not shown) [AD4-13243]			DNA fragmentation / apoptosis (in words) ([3]; A549 cells): increased DNA fragmentation; % Inc. over Background, DNA fragmentation ([3]; A549 cells, 1 μM): 551%; % Inc. over Background, DNA fragmentation ([3]; A549 cells, 10 μM): 716%; S15p-p53 (phosphorylated S15 p53) [4]: significantly increased; total p53 expression [4]: significantly increased; phosphorylated forms of p53 [5]: increased all three phosphorylated forms of p53
		1.8	1.8	Cc1ccc(C)c(C(Nc2cccnc2)c2cc(Cl)c3cccnc3c2O)c1 (stereo not shown) [AD4-10944]			stimulation of p53 reporter gene activity [7]: 7.5 fold
4.3		1	1	Cc1ccc2c(C)nc(Nc3nc(-c4ccccc4C)cc(=O)[nH]3)nc2c1 [AD4-11511]	0.89	0.89	
